Assay results published in patent publication US20080004302A1, “Novel Compounds” (ASTRAZENECA AB, priority 2006, published 2008).
Where two headings read alike, the source gives them in different places.

Key:
[1] = molecular target: human cytochrome P450 (CYP) 2C19 (Homo sapiens, UniProt P33261)
Protocol: (§1) The inhibitory potential (IC50) of test compounds against 5 human cytochrome P450 (CYP) isoforms (IA2, 2C9, 2C19, 3A4 and 2D6) was assessed using an automated fluorescent end point in vitro assay modified from Crespi (Crespi and Stresser, 2000). Microsomal subcellular fractions prepared from Yeast cell lines expressing each human CYP isoform were used as an enzyme source in this assay. The activity of the 5 major human CYPs was determined from the biotransformation of a number of coumarin substrates to fluorescent metabolites, in the presence of NADPH. […] Stock solutions of each CYP, with its respective substrate, were prepared in phosphate buffer pH7.4 (see Table 1) and 178 μl was added to the well of a black solid, flat bottom, 300 μl 96 well microtitre plate (Coming Costar). […] After pre-incubating at 37° C. for 5 min the reactions were started with addition of NADPH (20 μl, concentration shown in Table 1). The final solvent content in each incubation was <=2% (1% from the test compound and a maximum of 1% from the substrate). The appropriate solvent controls and substrate blanks were included in each experiment to assess control activity and identify any inherent fluorescence due to the test compounds. In addition, known inhibitors of each CYP were included as positive controls (see Table 3 for inhibitor concentrations and expected IC50 ranges). The reactions were stopped at defined timepoints (see Table 1) by quenching with 100 μl of solvent (acetonitrile:0.5M Tris buffer 80:20 v/v). The plates were read on a fluorimeter (Spectrafluor Plus) at the appropriate excitation and emission wavelengths (listed in Table 2) and the percent activity, corrected for control, was plotted against the test compound concentration.

[2] = molecular target: T1, human cytochrome P450 (CYP) 1A2 (Homo sapiens, UniProt P05177)
T1 sequence (P05177 1-516): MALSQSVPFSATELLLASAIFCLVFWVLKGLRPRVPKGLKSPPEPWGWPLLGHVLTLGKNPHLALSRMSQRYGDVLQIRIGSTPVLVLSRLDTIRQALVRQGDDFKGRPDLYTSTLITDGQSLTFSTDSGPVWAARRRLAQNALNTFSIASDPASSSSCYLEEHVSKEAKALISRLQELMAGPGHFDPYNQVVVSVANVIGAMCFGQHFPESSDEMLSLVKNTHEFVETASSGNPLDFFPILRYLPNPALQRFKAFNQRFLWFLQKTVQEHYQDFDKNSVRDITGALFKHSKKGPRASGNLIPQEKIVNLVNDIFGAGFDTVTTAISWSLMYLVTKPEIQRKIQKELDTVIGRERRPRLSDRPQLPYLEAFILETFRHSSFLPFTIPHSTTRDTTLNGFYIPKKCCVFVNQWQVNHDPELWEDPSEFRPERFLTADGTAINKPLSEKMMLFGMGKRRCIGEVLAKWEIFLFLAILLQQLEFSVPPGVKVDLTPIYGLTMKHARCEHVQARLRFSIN
Protocol: as §1

[3] = molecular target: human cytochrome P450 (CYP) 2C9 (Homo sapiens, UniProt P11712)
human cytochrome P450 (CYP) 2C9, sequence (P11712 whole entry): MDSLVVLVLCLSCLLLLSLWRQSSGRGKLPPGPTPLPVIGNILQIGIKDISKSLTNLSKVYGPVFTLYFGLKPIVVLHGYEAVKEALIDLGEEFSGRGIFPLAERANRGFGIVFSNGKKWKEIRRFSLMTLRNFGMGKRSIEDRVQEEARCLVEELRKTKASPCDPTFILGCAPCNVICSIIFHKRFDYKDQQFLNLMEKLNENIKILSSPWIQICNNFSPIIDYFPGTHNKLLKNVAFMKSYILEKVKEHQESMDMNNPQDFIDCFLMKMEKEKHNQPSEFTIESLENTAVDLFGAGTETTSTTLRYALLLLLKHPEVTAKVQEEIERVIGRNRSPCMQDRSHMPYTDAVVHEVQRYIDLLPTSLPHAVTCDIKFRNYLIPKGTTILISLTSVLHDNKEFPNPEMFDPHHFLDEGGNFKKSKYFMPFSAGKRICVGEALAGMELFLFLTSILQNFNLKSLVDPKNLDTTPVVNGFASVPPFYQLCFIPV
Protocol: as §1

[4] = molecular target: T2, human cytochrome P450 (CYP) 3A4 (Homo sapiens, UniProt P08684); test: Cytochrome P450 inhibition assay, 3A4; type: in vitro ADME; settings: test concentrations 0.1-10 μM
T2 construct: made in house; host or cells: yeast (microsomal fraction)
T2 sequence (P08684 whole entry): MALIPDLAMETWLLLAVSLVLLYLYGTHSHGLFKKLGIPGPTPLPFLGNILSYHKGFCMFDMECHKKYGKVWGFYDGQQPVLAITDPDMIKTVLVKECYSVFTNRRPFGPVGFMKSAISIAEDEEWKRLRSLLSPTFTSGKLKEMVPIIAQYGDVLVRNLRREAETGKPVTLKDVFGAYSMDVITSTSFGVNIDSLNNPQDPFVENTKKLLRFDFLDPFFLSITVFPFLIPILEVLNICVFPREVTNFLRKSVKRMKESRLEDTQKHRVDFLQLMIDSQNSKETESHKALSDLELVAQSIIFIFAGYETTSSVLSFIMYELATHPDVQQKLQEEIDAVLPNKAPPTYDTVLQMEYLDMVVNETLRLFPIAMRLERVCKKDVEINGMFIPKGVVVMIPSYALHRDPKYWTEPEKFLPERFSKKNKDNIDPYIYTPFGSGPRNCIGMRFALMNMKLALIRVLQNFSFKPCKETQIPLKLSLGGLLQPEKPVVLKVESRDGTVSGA
Protocol: as §1

CYP2D6 = CYP2D6 (Homo sapiens, UniProt P10635); test: in vitro; settings: pH 7.4, probe coumarin substrate (not named)
CYP2D6, sequence (P10635 whole entry, the tested form may be a part): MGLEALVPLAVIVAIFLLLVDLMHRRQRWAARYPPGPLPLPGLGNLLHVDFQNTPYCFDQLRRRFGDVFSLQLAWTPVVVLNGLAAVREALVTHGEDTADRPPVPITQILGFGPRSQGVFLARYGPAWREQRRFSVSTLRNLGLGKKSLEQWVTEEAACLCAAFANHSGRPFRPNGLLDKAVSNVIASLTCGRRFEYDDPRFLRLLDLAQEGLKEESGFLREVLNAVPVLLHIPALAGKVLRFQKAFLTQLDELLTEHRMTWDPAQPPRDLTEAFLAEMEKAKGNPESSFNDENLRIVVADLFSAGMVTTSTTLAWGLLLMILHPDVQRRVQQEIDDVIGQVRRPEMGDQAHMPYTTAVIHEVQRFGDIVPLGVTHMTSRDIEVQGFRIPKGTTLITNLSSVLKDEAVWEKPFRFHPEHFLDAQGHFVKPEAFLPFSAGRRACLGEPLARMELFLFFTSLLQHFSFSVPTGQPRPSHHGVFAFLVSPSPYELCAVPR
Protocol: as §1

FGFR kinase domain = molecular target: T3, FGFR kinase domain (Homo sapiens, UniProt P11362, C488A/C584S); test: Kinase assay (ELISA) for inhibition of FGFR activity; type: biochemical
T3 construct: FGFR kinase domain (amino acids 458-765, C488A, C584S) N-terminally fused to a His6-tag; made in house
T3 sequence (P11362 458-765 C488A/C584S): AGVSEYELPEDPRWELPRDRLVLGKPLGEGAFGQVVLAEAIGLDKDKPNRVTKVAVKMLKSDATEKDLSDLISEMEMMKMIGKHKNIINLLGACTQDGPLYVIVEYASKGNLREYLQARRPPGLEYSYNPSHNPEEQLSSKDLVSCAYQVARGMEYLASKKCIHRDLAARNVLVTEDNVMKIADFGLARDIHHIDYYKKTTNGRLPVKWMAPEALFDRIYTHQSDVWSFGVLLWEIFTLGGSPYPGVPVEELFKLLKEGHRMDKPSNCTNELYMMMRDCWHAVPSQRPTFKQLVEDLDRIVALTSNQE
Protocol: To determine inhibition of FGFR activity, kinase assays were conducted using ELISA (Enzyme-Linked Immunosorbent Assay) technology.
Kinase activity assays were performed in 384-well polypropylene plates (Matrix, 4311) with a total volume of 40 μl in each well. Each well was coated with 2 μg of polyEAY substrate (Sigma, P3899) at 4° C. overnight. The plates were then washed once with 100 μl PBS and once with 100 μl 50 mM HEPES (pH 7.4) prior to the addition of the kinase assay reagents. […] Various concentrations of test compounds were each added in 5% (v/v) DMSO to yield a final assay DMSO concentration of 1.25% (v/v). The kinase reactions were incubated at room temperature for 45 minutes and stopped by washing the plate three times with 100 μl PBS plus 0.05% Tween. […] Following this, the plates were then washed repeatedly with 100 μl PBS plus 0.05% Tween to remove all traces of the antibody solution. 40 μl of 50 μg/ml 3,3′,5,5′-Tetramethylbenzidine (Sigma, T2885), 0.05M phosphate-citrate buffer, containing 0.03% sodium perborate was added to each well and the plates incubated at room temperature for twelve minutes. The colour reaction was stopped by the addition of 20 μl 2M H2SO4 and the plates read at 450 nm on a Spectrafluor Plus (Tecan).

Erk phosphorylation = test: Growth factor (bFGF) stimulated Erk phosphorylation in NIH 3T3 cells; settings: Mus musculus, NIH3T3
Description: These and other assays were used to evaluate the ability of a test compound to inhibit growth factor stimulated cellular signalling in mammalian cell lines. This was achieved by measuring the amount of receptor tyrosine kinase regulated Erk phosphorylation within a cell following compound treatment.
NIH 3T3 (ECACC, 93061524) cells were routinely passaged in DMEM (Gibco BRL, 41966) plus 10% foetal calf serum (FCS), 1% L-glutamine (Gibco BRL, 25030) to a confluence not greater than 80%. To undertake the assay, NIH 3T3's were seeded at 1×10^4 cells/well in DMEM plus 10% foetal calf serum, 1% L-glutamine in 96 well plates (Costar, 3904) and incubated at 37° C. (+5% CO2) in a humidified incubator. Once the cells had fully adhered (typically following 4-5 hours incubation) the media was removed from each well and the cells gently washed with 100μl warm serum free media. 90μl of serum free DMEM plus 1% L-glutamine was then added to each well and the plates were returned to a humidified 37° C. (+5% CO2) incubator. The following day, the plates were dosed with 10[l compound (diluted from 10 mM stock in DMSO using serum free DMEM) and the plates were returned to a humidified 37° C. (+5% CO2) incubator for one hour. NIH 3T3 cells were then stimulated with a final concentration of 3 ng/ml bFGF (Sigma, F029 1) for 20 minutes at 37° C. Following stimulation the cells were fixed by adding formaldehyde (4% v/v final concentration) and incubating at room temperature for 20 minutes. The fixative solution was then removed and the wells were washed twice with 100μl phosphate buffered saline (PBS/A) before permeabilising the cells by the addition of 50 μl/well 0.1% triton/PBS/A for 10 minutes at room temperature. The permeabilisation solution was then removed and the cells washed twice more with 100 μl/well PBS/A before the addition of 50 μl/well anti-phospho p44/42 (Cell Signalling Technology, 9106), diluted 1/500 with PBS/A plus 10% FCS. The anti-phospho p44/42 antibody recognises Erk phosphorylated at threonine 202 and tyrosine 204. […] Finally, the plates were washed three times with 100 μl/well PBS/A, leaving the final wash in the wells before sealing the plates. The plates were read at 350 nm and 488 nm using an Arrayscan (Cellomics).

human IGF1R = molecular target: T4, human IGF1R (Homo sapiens, UniProt P08069); test: Inhibition of insulin-like growth factor-1 receptor phosphorylation in R+ cells; type: cell-based; settings: 30 nM IGF1, read-out: IGF cell class
T4 construct: expressed in transfected cells; host or cells: R+ cells (R- mouse fibroblasts transfected with human IGF1R)
T4 sequence (P08069 31-1367): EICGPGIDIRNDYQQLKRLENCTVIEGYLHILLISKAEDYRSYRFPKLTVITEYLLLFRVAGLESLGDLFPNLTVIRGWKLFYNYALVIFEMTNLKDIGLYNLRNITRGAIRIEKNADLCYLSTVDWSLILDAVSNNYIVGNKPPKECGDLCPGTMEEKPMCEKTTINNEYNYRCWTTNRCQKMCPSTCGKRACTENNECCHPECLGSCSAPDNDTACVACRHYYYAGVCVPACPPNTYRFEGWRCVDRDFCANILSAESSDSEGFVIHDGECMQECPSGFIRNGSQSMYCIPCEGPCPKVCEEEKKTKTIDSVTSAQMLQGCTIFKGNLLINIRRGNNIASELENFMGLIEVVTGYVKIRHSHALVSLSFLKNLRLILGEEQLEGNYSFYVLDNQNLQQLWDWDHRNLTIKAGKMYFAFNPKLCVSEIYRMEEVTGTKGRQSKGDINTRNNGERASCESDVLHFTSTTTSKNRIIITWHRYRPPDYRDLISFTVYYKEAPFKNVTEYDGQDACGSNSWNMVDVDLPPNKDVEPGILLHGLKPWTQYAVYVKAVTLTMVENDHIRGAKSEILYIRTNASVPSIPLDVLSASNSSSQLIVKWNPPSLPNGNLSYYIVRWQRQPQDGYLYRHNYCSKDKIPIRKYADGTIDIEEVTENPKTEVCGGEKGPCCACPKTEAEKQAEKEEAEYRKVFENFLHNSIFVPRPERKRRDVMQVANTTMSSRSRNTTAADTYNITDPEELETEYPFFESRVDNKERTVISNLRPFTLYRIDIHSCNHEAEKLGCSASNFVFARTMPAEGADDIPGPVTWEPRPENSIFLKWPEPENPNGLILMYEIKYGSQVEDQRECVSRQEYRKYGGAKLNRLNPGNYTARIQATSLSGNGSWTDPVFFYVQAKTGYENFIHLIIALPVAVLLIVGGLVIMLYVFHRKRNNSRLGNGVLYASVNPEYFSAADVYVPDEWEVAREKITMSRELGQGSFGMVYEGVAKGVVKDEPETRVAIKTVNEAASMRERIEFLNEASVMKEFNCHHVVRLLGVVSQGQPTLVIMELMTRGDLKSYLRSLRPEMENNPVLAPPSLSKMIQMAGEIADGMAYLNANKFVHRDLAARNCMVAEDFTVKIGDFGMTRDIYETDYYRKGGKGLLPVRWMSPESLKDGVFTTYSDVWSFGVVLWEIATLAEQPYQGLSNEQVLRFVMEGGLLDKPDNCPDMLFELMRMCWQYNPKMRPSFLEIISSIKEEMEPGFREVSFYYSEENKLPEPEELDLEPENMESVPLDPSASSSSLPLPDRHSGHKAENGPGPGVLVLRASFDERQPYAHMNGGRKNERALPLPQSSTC

CYP3A4 = molecular target: T5, CYP3A4 (Homo sapiens, UniProt P08684); test: Cytochrome P450 inhibition assay, 3A4; type: in vitro ADME; settings: human, pH 7.4, probe coumarin substrate (not named); test concentrations 0.1-10 μM
T5 construct: made in house; host or cells: yeast (microsomal fraction)
T5 sequence (P08684 whole entry): as the sequence (P08684 whole entry) above
Protocol: as §1

[5] = comparative testing, read-out: Fgf Ic50

human cytochrome P450 (CYP) 2C19, sequence (P33261 whole entry): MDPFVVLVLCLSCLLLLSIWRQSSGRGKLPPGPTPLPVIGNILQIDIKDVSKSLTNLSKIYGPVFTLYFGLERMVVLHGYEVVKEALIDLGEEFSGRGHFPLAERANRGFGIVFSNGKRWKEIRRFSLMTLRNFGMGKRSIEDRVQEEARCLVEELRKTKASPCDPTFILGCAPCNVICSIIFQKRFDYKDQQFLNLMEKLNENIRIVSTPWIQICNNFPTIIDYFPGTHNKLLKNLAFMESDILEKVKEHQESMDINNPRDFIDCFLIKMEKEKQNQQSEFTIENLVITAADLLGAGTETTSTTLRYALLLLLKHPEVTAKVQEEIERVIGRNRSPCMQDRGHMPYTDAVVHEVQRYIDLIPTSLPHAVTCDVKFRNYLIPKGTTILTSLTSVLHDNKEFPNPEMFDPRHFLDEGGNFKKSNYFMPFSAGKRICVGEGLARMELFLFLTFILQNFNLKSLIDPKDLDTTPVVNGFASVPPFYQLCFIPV

SMILES | IC50 [1] | IC50 [2] | IC50 [3] | IC50 [4] | IC50 (CYP2D6) | IC50 (FGFR kinase domain; [5]) | IC50 (human IGF1R) | IC50 (CYP3A4) | IC50 (FGFR kinase domain; FGFR inhibition tests, ELISA kinase assay, read-out: Activity class) | IC50 (Erk phosphorylation)
Cc1cc(CNc2ncc(Cl)c(Nc3cc(C)[nH]n3)n2)on1 [(b), 5-chloro-N-[(3-methylisoxazol-5-yl)methyl]-N′-(5-methyl-2H-pyrazol-3-yl)pyrimidine-2,4-diamine] | > 10 µM | 0.46 µM | 1.12 µM | 4.4 µM | > 10 µM | – | – | – | – | –
Cc1cc(CNc2nccc(Nc3cc(C)[nH]n3)n2)on1 [Example 1, N-[(3-methylisoxazol-5-yl)methyl]-N′-(5-methyl-2H-pyrazol-3-yl)pyrimidine-2,4-diamine] | > 10 µM | > 10 µM | > 10 µM | 5.7 µM | > 10 µM | – | > 10 µM | – | – | < 1 µM
Cc1cc(CNc2nccc(Nc3cc(C4CC4)[nH]n3)n2)on1 [Example 9, N′-(5-cyclopropyl-2H-pyrazol-3-yl)-N-[(3-methyl-1,2-oxazol-5-yl)methyl]pyrimidine-2,4-diamine] | > 10 µM | 2.19 µM | > 10 µM | – | > 10 µM | 0.04 µM | 1 to 10 µM | > 10 µM | < 0.1 µM | –

More lines, main results first:

IC50 [1] | IC50 [2] | IC50 [3] | IC50 [4] | IC50 (CYP2D6) | IC50 (FGFR kinase domain; [5]) | IC50 (human IGF1R) | IC50 (CYP3A4) | IC50 (FGFR kinase domain; FGFR inhibition tests, ELISA kinase assay, read-out: Activity class) | SMILES | IC50 (Erk phosphorylation)
> 10 µM | 0.79 µM | > 10 µM | 3.31 µM | > 10 µM | 0.14 µM | – | – | – | Cc1cc(Nc2nc(NCc3cc(C)no3)ncc2Br)[nH]n1 [Comparative Example (a), 5-bromo-N-[(3-methylisoxazol-5-yl)methyl]-N′-(5-methyl-2H-pyrazol-3-yl)pyrimidine-2,4-diamine] | –
2.88 µM | ≤ 0.1 µM | 3.08 µM | 0.37 µM | > 10 µM | 0.09 µM | – | – | – | CCCc1cc(Nc2nc(NCc3cc(C)no3)ncc2Br)n[nH]1 [Comparative Example (d), 5-bromo-N-[(3-methylisoxazol-5-yl)methyl]-N′-(5-propyl-2H-pyrazol-3-yl)pyrimidine-2,4-diamine] | –
